Key:
[1] = Chemical stability of compound in saline assessed as compound remaining at 5 uM measured after 24 hrs by LC-MS/MS analysis; format: physicochemical; details: read-out: Stabilty
[2] = Oral bioavailability in male cynomolgus monkey at 75 mg/kg; format: ADME, organism-based, Macaca fascicularis; details: in vivo
[3] = AUC (0 to 12 hrs) in female rat at 180 mg/kg, po BID measured on day 28; format: ADME, organism-based; design: time < 12 hr, route oral, dose 180 mg/kg; details: in vivo
[4] = Protein binding in cynomolgus monkey plasma; format: ADME, cell-free, Macaca fascicularis; details: read-out: PPB
[5] = molecular target: T1, Broad substrate specificity ATP-binding cassette transporter ABCG2 (Homo sapiens, UniProt Q9UNQ0); experiment: Inhibition of BCRP in human Caco-2 cells; format: cell-based
T1 sequence (Q9UNQ0 whole entry): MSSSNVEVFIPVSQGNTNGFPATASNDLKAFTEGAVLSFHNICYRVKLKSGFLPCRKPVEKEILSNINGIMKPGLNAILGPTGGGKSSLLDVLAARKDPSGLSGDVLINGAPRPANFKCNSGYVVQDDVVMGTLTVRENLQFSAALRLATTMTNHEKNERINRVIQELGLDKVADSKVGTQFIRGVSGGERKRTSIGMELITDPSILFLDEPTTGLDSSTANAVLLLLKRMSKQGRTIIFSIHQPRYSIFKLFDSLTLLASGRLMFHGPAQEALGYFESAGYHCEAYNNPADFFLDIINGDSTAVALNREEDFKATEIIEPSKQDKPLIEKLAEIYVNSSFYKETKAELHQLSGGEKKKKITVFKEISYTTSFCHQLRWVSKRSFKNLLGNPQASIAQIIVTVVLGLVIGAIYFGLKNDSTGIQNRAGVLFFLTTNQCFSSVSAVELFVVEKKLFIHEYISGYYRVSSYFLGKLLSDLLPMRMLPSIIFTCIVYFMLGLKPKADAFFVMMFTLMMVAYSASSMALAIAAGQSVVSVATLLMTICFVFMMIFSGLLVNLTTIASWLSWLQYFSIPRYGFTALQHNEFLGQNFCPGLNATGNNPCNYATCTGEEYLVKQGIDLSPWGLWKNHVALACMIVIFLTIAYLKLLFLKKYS

[6] = Tmax in female cynomolgus monkey at 75 mg/kg, po measured on day 1; format: ADME, organism-based, Macaca fascicularis; details: in vivo
[7] = Half life in male cynomolgus monkey at 75 mg/kg, po BID measured on day 8; format: ADME, organism-based, Macaca fascicularis; details: in vivo
[8] = Solubility in simulated gastric fluid; format: physicochemical
[9] = Oral bioavailability in male cynomolgus monkey at 275 micromol/kg; format: ADME, organism-based, Macaca fascicularis; details: in vivo, at 275 µmol/kg
[10] = Stability in rat plasma assessed as parent compound remaining measured after 2 hrs by LC-MS/MS analysis; format: ADME, cell-free; details: read-out: Stabilty
[11] = Volume of distribution in male cynomolgus monkey at 15 mg/kg, iv measured on day 1; format: ADME, organism-based, Macaca fascicularis; details: in vivo
[12] = Chemical stability of compound in 0.1 N aqueous HCl buffer assessed as compound remaining at pH 1 at 5 uM measured after 1.5 hrs by LC-MS/MS analysis; format: physicochemical; details: pH 1, 1.5 h
[13] = Drug metabolism in mouse assessed as formation of M9 metabolite at 20 to 900 mg/kg; format: ADME, organism-based; details: in vivo, dose 20-900 mg/kg
[14] = molecular target: T2, Solute carrier organic anion transporter family member 1B3 (Homo sapiens, UniProt Q9NPD5); experiment: Inhibition of OATP1B3 (unknown origin) expressed in HEK293 cells; format: cell-based
T2 sequence (Q9NPD5 whole entry): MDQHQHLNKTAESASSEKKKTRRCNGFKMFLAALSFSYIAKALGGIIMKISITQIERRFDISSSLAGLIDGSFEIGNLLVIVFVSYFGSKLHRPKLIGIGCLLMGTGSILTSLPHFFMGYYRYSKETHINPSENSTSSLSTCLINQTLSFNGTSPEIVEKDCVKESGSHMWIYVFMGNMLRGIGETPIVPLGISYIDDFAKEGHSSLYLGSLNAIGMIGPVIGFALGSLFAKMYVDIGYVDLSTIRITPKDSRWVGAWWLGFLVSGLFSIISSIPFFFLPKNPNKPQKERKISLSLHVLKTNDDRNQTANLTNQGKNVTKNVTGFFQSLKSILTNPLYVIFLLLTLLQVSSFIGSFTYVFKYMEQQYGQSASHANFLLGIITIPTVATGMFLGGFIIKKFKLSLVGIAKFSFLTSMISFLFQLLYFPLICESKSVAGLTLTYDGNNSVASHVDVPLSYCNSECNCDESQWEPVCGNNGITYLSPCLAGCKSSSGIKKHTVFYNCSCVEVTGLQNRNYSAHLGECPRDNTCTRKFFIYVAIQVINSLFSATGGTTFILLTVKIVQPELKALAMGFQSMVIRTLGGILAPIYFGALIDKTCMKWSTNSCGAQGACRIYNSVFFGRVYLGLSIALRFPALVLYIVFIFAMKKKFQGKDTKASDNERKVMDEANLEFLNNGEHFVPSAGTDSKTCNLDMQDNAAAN

[15] = Oral bioavailability in female cynomolgus monkey at 75 mg/kg; format: ADME, organism-based, Macaca fascicularis; details: in vivo
[16] = Toxicity in rat assessed as abnormal respiratory sounds at 150 to 180 mg/kg, po; format: organism-based; details: in vivo, dose 150-180 mg/kg
[17] = Toxicity in po dosed female rat administered twice a day; format: organism-based; details: in vivo
[18] = Drug metabolism in cynomolgus monkey assessed as indoximod formation by measuring indoximod Tmax at 75 to 375 mg/kg, po BID; format: ADME, organism-based, Macaca fascicularis; details: in vivo, dose 75-375 mg/kg
[19] = Cmax in male rat at 150 mg/kg, po BID measured on day 28; format: ADME, organism-based; design: route oral, dose 150 mg/kg; details: in vivo
[20] = molecular target: CYP3A4 (Homo sapiens, UniProt P08684); experiment: Time dependent inhibition of CYP3A4 in human hepatocytes assessed as fold shift relative to control; format: ADME, cell-based, Hepatocyte; details: read-out: FC
[21] = AUC (0 to 24 hrs) in male cynomolgus monkey at 15 mg/kg, iv measured on day 1; format: ADME, organism-based, Macaca fascicularis; design: time < 24 hr, route intravenous, dose 15 mg/kg; details: in vivo
[22] = AUC (0 to 24 hrs) at steady state in mouse at 62 mg/kg administered bid; format: ADME, organism-based; design: time < 24 hr, dose 62 mg/kg; details: in vivo
[23] = Half life in male cynomolgus monkey at 15 mg/kg, iv measured on day 1; format: ADME, organism-based, Macaca fascicularis; details: in vivo
[24] = Tmax in male cynomolgus monkey at 75 mg/kg, po measured on day 1; format: ADME, organism-based, Macaca fascicularis; details: in vivo
[25] = Change in normalised AUC (infinity) in rat at 50 mg/kg, po measured upto 72 hrs by LC-MS/MS analysis; format: ADME, organism-based; details: in vivo
[26] = Half life in male cynomolgus monkey at 225 mg/kg, po measured on day 1; format: ADME, organism-based, Macaca fascicularis; details: in vivo
[27] = Apparent oral clearance in female cynomolgus monkey at 150 mg/kg, po BID measured on day 8; format: ADME, organism-based, Macaca fascicularis; details: in vivo
[28] = Dose normalized AUC (0 to infinity) in rat at 50 mg/kg, po measured upto 72 hrs by LC-MS/MS analysis; format: ADME, organism-based; details: in vivo
[29] = Half life in male cynomolgus monkey at 75 mg/kg, po measured on day 1; format: ADME, organism-based, Macaca fascicularis; details: in vivo
[30] = Cmax in mouse at 62 mg/kg administered bid; format: ADME, organism-based; design: dose 62 mg/kg; details: in vivo
[31] = AUC (0 to infinity) in human at 2400 mg administered bid; format: ADME; design: time infinity, dose 2400 mg; details: in vivo
[32] = Apparent oral clearance in male cynomolgus monkey at 225 mg/kg, po measured on day 1; format: ADME, organism-based, Macaca fascicularis; details: in vivo

CYP3A4, sequence (P08684 whole entry): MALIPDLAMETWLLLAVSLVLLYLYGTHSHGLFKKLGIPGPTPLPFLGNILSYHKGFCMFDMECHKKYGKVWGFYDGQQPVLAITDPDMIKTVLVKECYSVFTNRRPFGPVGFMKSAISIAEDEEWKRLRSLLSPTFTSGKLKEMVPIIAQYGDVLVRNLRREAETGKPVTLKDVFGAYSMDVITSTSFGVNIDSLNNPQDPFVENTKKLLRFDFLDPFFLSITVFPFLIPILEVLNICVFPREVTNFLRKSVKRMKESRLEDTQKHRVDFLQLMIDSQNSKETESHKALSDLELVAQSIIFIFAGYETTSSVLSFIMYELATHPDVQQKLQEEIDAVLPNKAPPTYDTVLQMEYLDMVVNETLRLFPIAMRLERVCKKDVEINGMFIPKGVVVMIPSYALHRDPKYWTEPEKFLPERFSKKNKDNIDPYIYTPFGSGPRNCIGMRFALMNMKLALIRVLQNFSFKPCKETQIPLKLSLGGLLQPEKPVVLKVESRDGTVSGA

CCOC(=O)[C@@H](Cc1cn(C)c2ccccc12)NC(=O)[C@@H](N)CC(C)C.Cl
remaining at 24 h, 5 µM [1]: 87% | bioavailability [2]: 61.8% | AUC at 12 h [3]: 1380 µM·h | fraction unbound [4]: 0.5 | inhibition (INH) [5]: Not Active | Tmax [6]: 2 h | half-life [7]: 108 min | solubility [8]: 17.1 mg/mL | F [9]: 10% | remaining at 2 h [10]: 0% | Vd [11]: 309 L/kg | Stabilty [12]: 90% | Drug metabolism [13]: Metabolite_Detected | IC50 [14]: > 50 µM | bioavailability [15]: 50.1% | Activity [16]: Toxic | TD10 [17]: 150 mg/kg | Tmax [18]: 1 h | Cmax [19]: 169 µM | IC50 shift [20]: 7 | AUC [21]: 309 nM·h

Cn1cc(C[C@@H](N)C(=O)O)c2ccccc21 [INDOXIMOD]
AUC at 24 h [22]: > 170 µM·h | half-life [23]: 120 min | Tmax [24]: 2 h | Activity [25]: 0% | half-life [26]: 174 min | CL/F [27]: 17.6 mL/min/kg | AUC/dose [28]: 1323 µM·h | half-life [29]: 162 min | Cmax [30]: > 16 µM | AUC(0-inf) [31]: 170 µM·h | CL/F [32]: 22.1 mL/min/kg
